From US6548268B1, “Chromogenic medium for detecting Staphylococcus aureus” (priority 1999, dated 2003)

Columns and labels:
Staphylococcus aureus [1] = details: chromogenic agent in culture medium
Source text: (§1) The term “chromogenic agent” is understood to denote a compound which changes color in the presence of a specific strain, in particular under the effect of the enzymatic system of said strain.

Streptococcus strains = details: chromogenic agent in culture medium; a large number of Streptococcus strains
Source text: as §1

Staphylococcus aureus [2] = experiment: Growth inhibition in the culture medium; assay type: cell-based; details: deferoxamine in the culture medium
Source text: The concentration used will preferably be between 0.010 and 0.100 g/l.

Compound | Staining in the presence of S. aureus (Staphylococcus aureus [1]) | Staining of Streptococcus strains (Streptococcus strains) | Inhibition of growth of Staphylococcus aureus (Staphylococcus aureus [2])
5-bromo-4-chloro-3-indoxyl glucuronide | negative | – | –
5-bromo-4-chloro-3-indoxyl glucoside | without staining | stains blue | –
5-bromo-6-chloro-3-indoxyl phosphate | mauve staining | – | –
CC(=O)N(O)CCCCCNC(=O)CCC(=O)N(O)CCCCCNC(=O)CCC(=O)N(O)CCCCCN [deferoxamine] | – | – | without inhibiting
5-bromo-4-chloro-3-indoxyl galactoside | negative | – | –
